# Test results: patent US20240072809A1, “ASGPR-BINDING COMPOUNDS FOR THE DEGRADATION OF EXTRACELLULAR PROTEINS” (Avilar Therapeutics, Inc., priority 2020, published 2024)
# Bridge positions count the residues as written; N and C are the ends. Peptide text beside a SMILES is read from it. * marks the point of attachment. X3 = CO[C@@H]1O[C@H](COCCOCCOCCOCCNC(=O)CCOCC(COCCC(=O)NCCOCCOCCOCCOC[C@H]2O[C@@H](OC)[C@H](NC(C)=O)[C@@H](O)[C@H]2O)(COCCC(=O)NCCOCCOCCOCCOC[C@H]2O[C@@H](OC)[C@H](NC(C)=O)[C@@H](O)[C@H]2O)NC(=O)COCCOCCOCC(=O)*)[C@H](O)[C@H](O)[C@H]1NC(C)=O
# Target: ASGPR (Homo sapiens (Human), UniProt P07306)
# Sequence (P07306 whole entry): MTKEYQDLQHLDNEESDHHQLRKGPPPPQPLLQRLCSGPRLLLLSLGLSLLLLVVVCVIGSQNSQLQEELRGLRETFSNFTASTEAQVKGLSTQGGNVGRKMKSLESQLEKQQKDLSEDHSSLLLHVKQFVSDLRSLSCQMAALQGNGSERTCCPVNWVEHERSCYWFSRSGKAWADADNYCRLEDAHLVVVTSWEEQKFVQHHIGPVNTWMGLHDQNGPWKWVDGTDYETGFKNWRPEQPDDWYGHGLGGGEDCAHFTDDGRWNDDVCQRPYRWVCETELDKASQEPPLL
# Experiment: Affinity to ASGPR measured by surface plasmon resonance (SPR)
# Type: binding
# Settings: ASGPR ligands, Table 2; Biacore 8K, 25° C., steady state fit; read-out: SPR Binding External Calculation: KD
row,Kd [µM],SMILES
1,< 100,OC[C@H]1OC[C@H](Nc2ncc(Cl)cc2F)[C@@H](O)[C@H]1O [Compound A100]
2,< 100,CO[C@@H]1O[C@H](CO)[C@H](O)[C@H](O)[C@H]1Nc1nc(Cl)cs1 [Compound A108]
3,> 1000,"N[C@@H]1CO[C@H](CO)[C@H](O)[C@@H]1O [Compound A128, (2R,3R,4R,5R)-5-amino-2-(hydroxymethyl)tetrahydro-2H-pyran-3,4-diol]"
4,> 1000,"CO[C@@H]1O[C@H](CO)[C@H](O)[C@H](O)[C@@H]1OC [Compound A217, (2R,3R,4S,5S,6R)-2-(hydroxymethyl)-5,6-dimethoxytetrahydro-2H-pyran-3,4-diol]"
5,< 100,"CO[C@@H]1O[C@H](CO)[C@H](O)[C@H](O)[C@H]1n1ccc(=O)cc1 [Compound A119, 1-((2R,3R,4R,5R,6R)-4,5-dihydroxy-6-(hydroxymethyl)-2-methoxytetrahydro-2H-pyran-3-yl)pyridin-4(1H)-one]"

# Same assay, conditions: ASGPR ligands, Table 4; class symbols; read-out: ASGPR_PR Binding KD
row,Kd [µM],SMILES
1,< 100,"OC[C@H]1OC[C@H](Nc2nc(N3CCOCC3)ns2)[C@@H](O)[C@H]1O [Compound A340, (2R,3R,4R,5S)-2-(hydroxymethyl)-5-((3-morpholino-1,2,4-thiadiazol-5-yl)amino)tetrahydro-2H-pyran-3,4-diol]"
2,100 to 500,"O=C(N[C@@H]1CO[C@H](CO)[C@H](O)[C@@H]1O)c1ccccc1 [Compound A136, N-((3R,4R,5R,6R)-4,5-dihydroxy-6-(hydroxymethyl)tetrahydro-2H-pyran-3-yl)benzamide]"
3,< 100,N#Cc1ccnc(N[C@H]2CO[C@H](CO)[C@H](O)[C@@H]2O)n1 [Compound A309]
4,< 100,Cc1cc(C(F)(F)F)nc(N[C@H]2CO[C@H](CO)[C@H](O)[C@@H]2O)n1 [Compound A334]
5,< 100,"CSc1nc(Cl)cc(N[C@H]2CO[C@H](CO)[C@H](O)[C@@H]2O)n1 [Compound A331, (2R,3R,4R,5S)-5-((6-chloro-2-(methylthio)pyrimidin-4-yl)amino)-2-(hydroxymethyl)tetrahydro-2H-pyran-3,4-diol]"
6,< 100,"OC[C@H]1OC[C@H](Nc2nc(-c3cccnc3)ns2)[C@@H](O)[C@H]1O [Compound A358, (2R,3R,4R,5S)-2-(hydroxymethyl)-5-((3-(pyridin-3-yl)-1,2,4-thiadiazol-5-yl)amino)tetrahydro-2H-pyran-3,4-diol]"
7,< 100,"O=c1ccn([C@H]2CO[C@H](CO)[C@H](O)[C@@H]2O)cc1 [Compound A345, 1-((3S,4R,5R,6R)-4,5-dihydroxy-6-(hydroxymethyl)tetrahydro-2H-pyran-3-yl)pyridin-4(1H)-one]"
8,< 100,CO[C@H]1O[C@H](CO)[C@H](O)[C@H](O)[C@H]1Nc1nc(Cl)c(C#N)s1 [Compound A379]
9,< 100,O=S(=O)(N[C@H]1CO[C@H](CO)[C@H](O)[C@@H]1O)C(F)(F)F [Compound A344]

# Same assay, conditions: ASGPR ligands, Table 4; numeric lower bounds; read-out: ASGPR_PR Binding KD
row,Kd [µM],SMILES
1,> 20,OC[C@H]1OC[C@H](Nc2cnc(C(F)(F)F)cn2)[C@@H](O)[C@H]1O [Compound A314]
2,> 200,"CN(C)C(=O)[C@@H]1CO[C@H](CO)[C@H](O)[C@@H]1O [Compound A170, (3R,4R,5R,6R)-4,5-dihydroxy-6-(hydroxymethyl)-N,N-dimethyltetrahydro-2H-pyran-3-carboxamide]"
3,> 200,"CNC(=O)[C@@H]1CO[C@H](CO)[C@H](O)[C@@H]1O [Compound A400, (3R,4R,5R,6R)-4,5-dihydroxy-6-(hydroxymethyl)-N-methyltetrahydro-2H-pyran-3-carboxamide]"
4,> 20,"CS(=O)(=O)NC(=O)N[C@H]1CO[C@H](CO)[C@H](O)[C@@H]1O [Compound A157, N-(((3S,4R,5R,6R)-4,5-dihydroxy-6-(hydroxymethyl)tetrahydro-2H-pyran-3-yl)carbamoyl)methanesulfonamide]"
5,> 20,OC[C@H]1OC[C@H](Nc2cc(Cl)nc(C(F)(F)F)n2)[C@@H](O)[C@H]1O [Compound A328]

# Same assay, conditions: extracellular protein degrading compounds, Table 3; read-out: SPR Binding External Calculation: KD (uM) ASGPR
row,Kd [µM],SMILES
1,< 100,CC(C)C[C@H]1NC(=O)[C@@H](CC(=O)[C@@H](NC(=O)[C@H](CCC(N)=O)NC(=O)[C@H](Cc2cnc[nH]2)NC(=O)CCOCCOCCOCCOCCNC(=O)CCCc2cn(CCCC(=O)NCCOCc3cnn(CCOCCOCCOCCO[C@@]45CO[C@@H](O4)[C@H](NC(=O)C(F)(F)F)[C@@H](O)[C@H]5O)c3)nn2)C(C)C)CSSC[C@@H](C(=O)N[C@@H](Cc2ccccc2)C(=O)N[C@@H](CO)C(=O)NC(C=O)[C@@H](C)O)NC(=O)[C@H](C(C)C)NC(=O)[C@@H]2CCCN2C(=O)[C@H](CCCNC(=N)N)NC(=O)CNC(=O)[C@@H](CCCNC(=N)N)NC(=O)[C@H](Cc2ccc(O)cc2)NC(=O)[C@H](CO)CC1=O (stereo partly drawn) [Compound 26]

# Same assay, conditions: read-out: ASGPR_SPR Binding KD
row,SMILES,Kd [µM]
1,CO[C@@H]1O[C@H](COCCOCCOCCOCCNC(=O)CCOCC(COCCC(=O)NCCOCCOCCOCCOC[C@H]2O[C@@H](OC)[C@H](NC(C)=O)[C@@H](O)[C@H]2O)(COCCC(=O)NCCOCCOCCOCCOC[C@H]2O[C@@H](OC)[C@H](NC(C)=O)[C@@H](O)[C@H]2O)NC(=O)COCCOCCOCC(=O)N[C@@H](Cc2cnc[nH]2)C(=O)N[C@@H](CCC(N)=O)C(=O)N[C@H](C(=O)N[C@H]2CSSC[C@@H](C(=O)N[C@@H](Cc3ccccc3)C(=O)N[C@@H](CO)C(=O)N[C@H](C(N)=O)[C@@H](C)O)NC(=O)[C@H](C(C)C)NC(=O)[C@@H]3CCCN3C(=O)[C@H](CCCNC(=N)N)NC(=O)CNC(=O)[C@H](CCCNC(=N)N)NC(=O)[C@H](Cc3ccc(O)cc3)NC(=O)[C@H](CO)NC(=O)[C@H](CC(C)C)NC2=O)C(C)C)[C@H](O)[C@H](O)[C@H]1NC(C)=O [Compound 30] (X3-HQVCLSYRGRPVCFST-NH2; disulfide 4-13),< 100
